According to PubChem BioAssay (NCI):
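GI50: concentration for 50% inhibition of growth. TGI denotes the concentration required for complete inhibition of growth.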

Key:
Experiment in all cases: growth of human tumour cells (NCI), 384-well format
MDA-MB-231 breast = tested on: MDA-MB-231 breast
NCI-H522 lung = tested on: NCI-H522 lung
K-562 leukemia = tested on: K-562 leukemia
NCI/ADR-RES ovarian = tested on: NCI/ADR-RES ovarian
MDA-MB-435 melanoma = tested on: MDA-MB-435 melanoma
KM12 colon = tested on: KM12 colon
UACC-257 melanoma = tested on: UACC-257 melanoma
MDA-MB-468 breast = tested on: MDA-MB-468 breast
SK-OV-3 ovarian = tested on: SK-OV-3 ovarian
PC-3 prostate = tested on: PC-3 prostate
M14 melanoma = tested on: M14 melanoma
RPMI-8226 leukemia = tested on: RPMI-8226 leukemia
HT29 colon = tested on: HT29 colon
SF-295 CNS = tested on: SF-295 CNS
TK-10 renal = tested on: TK-10 renal
MALME-3M melanoma = tested on: MALME-3M melanoma
EKVX NSCLC = tested on: EKVX NSCLC
786-0 renal = tested on: 786-0 renal
SNB-75 CNS = tested on: SNB-75 CNS
UO-31 renal = tested on: UO-31 renal
T-47D breast = tested on: T-47D breast
SN12C renal = tested on: SN12C renal
NCI-H460 NSCLC = tested on: NCI-H460 NSCLC
MOLT-4 leukemia = tested on: MOLT-4 leukemia
A549 NSCLC = tested on: A549 NSCLC
IGROV1 ovarian = tested on: IGROV1 ovarian
SF-268 CNS = tested on: SF-268 CNS
OVCAR-5 ovarian = tested on: OVCAR-5 ovarian
NCI-H226 lung = tested on: NCI-H226 lung
OVCAR-4 ovarian = tested on: OVCAR-4 ovarian
HOP-92 NSCLC = tested on: HOP-92 NSCLC
HS 578T breast = tested on: HS 578T breast
BT-549 breast = tested on: BT-549 breast
NCI-H23 lung = tested on: NCI-H23 lung
U251 glioblastoma = tested on: U251 glioblastoma
LOX IMVI melanoma = tested on: LOX IMVI melanoma
HCC-2998 colon = tested on: HCC-2998 colon
SF-539 CNS = tested on: SF-539 CNS
COLO 205 colon = tested on: COLO 205 colon
SNB-19 CNS = tested on: SNB-19 CNS
ACHN renal = tested on: ACHN renal
CAKI-1 renal = tested on: CAKI-1 renal
OVCAR-8 ovarian = tested on: OVCAR-8 ovarian
SR leukemia = tested on: SR leukemia
HL-60(TB) leukemia = tested on: HL-60(TB) leukemia
RXF 393 renal = tested on: RXF 393 renal
OVCAR-3 ovarian = tested on: OVCAR-3 ovarian
NCI-H322M lung = tested on: NCI-H322M lung
HCT-15 colon = tested on: HCT-15 colon
DU-145 prostate = tested on: DU-145 prostate
SK-MEL-28 melanoma = tested on: SK-MEL-28 melanoma
HOP-62 NSCLC = tested on: HOP-62 NSCLC
MCF7 breast = tested on: MCF7 breast
SK-MEL-5 melanoma = tested on: SK-MEL-5 melanoma
A498 renal = tested on: A498 renal
HCT-116 colon = tested on: HCT-116 colon

Cc1c(C#N)cccc1-c1cc(-c2cn(Cc3cccc(C(C)(C)O)n3)nn2)nc(N)n1
GI50 (MDA-MB-231 breast): 30500 nM
TGI (MDA-MB-231 breast): > 100000 nM
GI50 (NCI-H522 lung): 18300 nM
TGI (NCI-H522 lung): 62400 nM
GI50 (K-562 leukemia): 25300 nM
TGI (K-562 leukemia): > 100000 nM
GI50 (NCI/ADR-RES ovarian): 17500 nM
TGI (NCI/ADR-RES ovarian): 44500 nM
GI50 (MDA-MB-435 melanoma): 36000 nM
TGI (MDA-MB-435 melanoma): > 100000 nM
GI50 (KM12 colon): 334 nM
TGI (KM12 colon): > 100000 nM
GI50 (UACC-257 melanoma): 25700 nM
TGI (UACC-257 melanoma): 79000 nM
GI50 (MDA-MB-468 breast): 368 nM
TGI (MDA-MB-468 breast): 28700 nM
GI50 (SK-OV-3 ovarian): 33800 nM
TGI (SK-OV-3 ovarian): > 100000 nM
GI50 (PC-3 prostate): 29900 nM
TGI (PC-3 prostate): > 100000 nM
GI50 (M14 melanoma): 57800 nM
TGI (M14 melanoma): > 100000 nM
GI50 (RPMI-8226 leukemia): 14900 nM
TGI (RPMI-8226 leukemia): 31500 nM
GI50 (HT29 colon): 41100 nM
TGI (HT29 colon): > 100000 nM
GI50 (SF-295 CNS): 25600 nM
TGI (SF-295 CNS): 95800 nM
GI50 (TK-10 renal): 24000 nM
TGI (TK-10 renal): 96300 nM
GI50 (MALME-3M melanoma): 25200 nM
TGI (MALME-3M melanoma): 96400 nM
GI50 (EKVX NSCLC): 32100 nM
TGI (EKVX NSCLC): > 100000 nM
GI50 ([…]-0 renal): 38200 nM
TGI (786-0 renal): > 100000 nM
GI50 (SNB-75 CNS): 53200 nM
TGI (SNB-75 CNS): > 100000 nM
GI50 (UO-31 renal): 19000 nM
TGI (UO-31 renal): 62500 nM
GI50 (T-47D breast): 15200 nM
TGI (T-47D breast): 50900 nM

O=C(/C=C/c1cccnc1)NCCCCC1CCN(C(=O)c2ccccc2)CC1
GI50 (MDA-MB-231 breast): < 10 nM
TGI (MDA-MB-231 breast): < 10 nM
GI50 (SN12C renal): < 10 nM
TGI (SN12C renal): < 10 nM
GI50 (NCI-H460 NSCLC): < 10 nM
TGI (NCI-H460 NSCLC): 11.7 nM
GI50 (MOLT-4 leukemia): < 10 nM
TGI (MOLT-4 leukemia): < 10 nM
GI50 (NCI-H522 lung): < 10 nM
TGI (NCI-H522 lung): < 10 nM
GI50 (A549 NSCLC): < 10 nM
TGI (A549 NSCLC): 10.8 nM
GI50 (IGROV1 ovarian): < 10 nM
TGI (IGROV1 ovarian): < 10 nM
GI50 (NCI/ADR-RES ovarian): < 10 nM
TGI (NCI/ADR-RES ovarian): < 10 nM
GI50 (SF-268 CNS): < 10 nM
TGI (SF-268 CNS): < 10 nM
GI50 (OVCAR-5 ovarian): < 10 nM
TGI (OVCAR-5 ovarian): < 10 nM
GI50 (MDA-MB-435 melanoma): < 10 nM
TGI (MDA-MB-435 melanoma): < 10 nM
GI50 (KM12 colon): < 10 nM
TGI (KM12 colon): < 10 nM
GI50 (NCI-H226 lung): 60.2 nM
TGI (NCI-H226 lung): > 100000 nM
GI50 (OVCAR-4 ovarian): < 10 nM
TGI (OVCAR-4 ovarian): < 10 nM
GI50 (HOP-92 NSCLC): < 10 nM
TGI (HOP-92 NSCLC): 24 nM
GI50 (HS 578T breast): < 10 nM
TGI (HS 578T breast): < 10 nM
GI50 (BT-549 breast): < 10 nM
TGI (BT-549 breast): < 10 nM
GI50 (NCI-H23 lung): < 10 nM
TGI (NCI-H23 lung): < 10 nM
GI50 (MDA-MB-468 breast): < 10 nM
TGI (MDA-MB-468 breast): < 10 nM
GI50 (SK-OV-3 ovarian): < 10 nM
TGI (SK-OV-3 ovarian): < 10 nM
GI50 (PC-3 prostate): < 10 nM
TGI (PC-3 prostate): < 10 nM
GI50 (U251 glioblastoma): < 10 nM
TGI (U251 glioblastoma): < 10 nM
GI50 (LOX IMVI melanoma): < 10 nM
TGI (LOX IMVI melanoma): < 10 nM
GI50 (HCC-2998 colon): < 10 nM
TGI (HCC-2998 colon): < 10 nM
GI50 (M14 melanoma): < 10 nM
TGI (M14 melanoma): < 10 nM
GI50 (SF-539 CNS): < 10 nM
TGI (SF-539 CNS): < 10 nM
GI50 (RPMI-8226 leukemia): < 10 nM
TGI (RPMI-8226 leukemia): < 10 nM
GI50 (HT29 colon): < 10 nM
TGI (HT29 colon): < 10 nM
GI50 (COLO 205 colon): < 10 nM
TGI (COLO 205 colon): < 10 nM
GI50 (SNB-19 CNS): < 10 nM
TGI (SNB-19 CNS): < 10 nM
GI50 (SF-295 CNS): < 10 nM
TGI (SF-295 CNS): < 10 nM
GI50 (ACHN renal): < 10 nM
TGI (ACHN renal): < 10 nM
GI50 (CAKI-1 renal): < 10 nM
TGI (CAKI-1 renal): < 10 nM
GI50 (OVCAR-8 ovarian): < 10 nM
TGI (OVCAR-8 ovarian): < 10 nM
GI50 (SR leukemia): < 10 nM
TGI (SR leukemia): < 10 nM
GI50 (TK-10 renal): < 10 nM
TGI (TK-10 renal): < 10 nM
GI50 (HL-60(TB) leukemia): < 10 nM
TGI (HL-60(TB) leukemia): < 10 nM
GI50 (RXF 393 renal): < 10 nM
TGI (RXF 393 renal): < 10 nM
GI50 (OVCAR-3 ovarian): < 10 nM
TGI (OVCAR-3 ovarian): < 10 nM
GI50 (MALME-3M melanoma): < 10 nM
TGI (MALME-3M melanoma): 13.9 nM
GI50 (NCI-H322M lung): < 10 nM
TGI (NCI-H322M lung): < 10 nM
GI50 (EKVX NSCLC): < 10 nM
TGI (EKVX NSCLC): < 10 nM
GI50 (HCT-15 colon): < 10 nM
TGI (HCT-15 colon): < 10 nM
GI50 (DU-145 prostate): < 10 nM
TGI (DU-145 prostate): < 10 nM
GI50 (SK-MEL-28 melanoma): < 10 nM
TGI (SK-MEL-28 melanoma): < 10 nM
GI50 (HOP-62 NSCLC): < 10 nM
TGI (HOP-62 NSCLC): < 10 nM
GI50 (SNB-75 CNS): < 10 nM
TGI (SNB-75 CNS): < 10 nM
GI50 (MCF7 breast): < 10 nM
TGI (MCF7 breast): < 10 nM
GI50 (SK-MEL-5 melanoma): < 10 nM
TGI (SK-MEL-5 melanoma): < 10 nM
GI50 (T-47D breast): < 10 nM
TGI (T-47D breast): < 10 nM
GI50 (A498 renal): 16.9 nM
TGI (A498 renal): 67.9 nM
GI50 (HCT-116 colon): < 10 nM
TGI (HCT-116 colon): < 10 nM
